Assay [1] addresses T1, Angiotensin-converting enzyme (Homo sapiens, UniProt P12821). The assay can be described thus: Inhibition of human fully glycosylated ACE N-terminal domain expressed in CHO cells using Cbz-Phe-His-Leu as substrate preincubated for 15 mins followed by substrate addition measured after 10 mins by fluorescence spectrophotometric analysis.
In assay [2] the target is T1, Angiotensin-converting enzyme. Briefly: Inhibition of human fully glycosylated ACE C-terminal domain expressed in CHO cells using Cbz-Phe-His-Leu as substrate preincubated for 15 mins followed by substrate addition measured after 10 mins by fluorescence spectrophotometric analysis.
For assay [3] the target is unchanged. The assay can be described thus: Inhibition of human fully glycosylated ACE N-terminal domain expressed in CHO cells using MCA-RPPGFSAFK(Dnp)-OH as substrate preincubated for 15 mins followed by substrate addition measured after 10 mins by fluorescence spectrophotometric analysis.
Assay [4] shares this target. The assay can be described thus: Inhibition of human fully glycosylated ACE C-terminal domain expressed in CHO cells using MCA-RPPGFSAFK(Dnp)-OH as substrate preincubated for 15 mins followed by substrate addition measured after 10 mins by fluorescence spectrophotometric analysis.
Assay [5] has the same target. Briefly: Inhibition of human fully glycosylated ACE N-terminal domain expressed in CHO cells using Cbz-Phe-His-Leu as substrate preincubated for 15 mins followed by substrate addition measured after 10 mins by Morrison's plot analysis.
Assay [6] shares this target. Briefly: Inhibition of human fully glycosylated ACE C-terminal domain expressed in CHO cells using Cbz-Phe-His-Leu as substrate preincubated for 15 mins followed by substrate addition measured after 10 mins by Morrison's plot analysis.

Molecules are shown by their SMILES.

T1 sequence (P12821 whole entry, the tested form may be a part): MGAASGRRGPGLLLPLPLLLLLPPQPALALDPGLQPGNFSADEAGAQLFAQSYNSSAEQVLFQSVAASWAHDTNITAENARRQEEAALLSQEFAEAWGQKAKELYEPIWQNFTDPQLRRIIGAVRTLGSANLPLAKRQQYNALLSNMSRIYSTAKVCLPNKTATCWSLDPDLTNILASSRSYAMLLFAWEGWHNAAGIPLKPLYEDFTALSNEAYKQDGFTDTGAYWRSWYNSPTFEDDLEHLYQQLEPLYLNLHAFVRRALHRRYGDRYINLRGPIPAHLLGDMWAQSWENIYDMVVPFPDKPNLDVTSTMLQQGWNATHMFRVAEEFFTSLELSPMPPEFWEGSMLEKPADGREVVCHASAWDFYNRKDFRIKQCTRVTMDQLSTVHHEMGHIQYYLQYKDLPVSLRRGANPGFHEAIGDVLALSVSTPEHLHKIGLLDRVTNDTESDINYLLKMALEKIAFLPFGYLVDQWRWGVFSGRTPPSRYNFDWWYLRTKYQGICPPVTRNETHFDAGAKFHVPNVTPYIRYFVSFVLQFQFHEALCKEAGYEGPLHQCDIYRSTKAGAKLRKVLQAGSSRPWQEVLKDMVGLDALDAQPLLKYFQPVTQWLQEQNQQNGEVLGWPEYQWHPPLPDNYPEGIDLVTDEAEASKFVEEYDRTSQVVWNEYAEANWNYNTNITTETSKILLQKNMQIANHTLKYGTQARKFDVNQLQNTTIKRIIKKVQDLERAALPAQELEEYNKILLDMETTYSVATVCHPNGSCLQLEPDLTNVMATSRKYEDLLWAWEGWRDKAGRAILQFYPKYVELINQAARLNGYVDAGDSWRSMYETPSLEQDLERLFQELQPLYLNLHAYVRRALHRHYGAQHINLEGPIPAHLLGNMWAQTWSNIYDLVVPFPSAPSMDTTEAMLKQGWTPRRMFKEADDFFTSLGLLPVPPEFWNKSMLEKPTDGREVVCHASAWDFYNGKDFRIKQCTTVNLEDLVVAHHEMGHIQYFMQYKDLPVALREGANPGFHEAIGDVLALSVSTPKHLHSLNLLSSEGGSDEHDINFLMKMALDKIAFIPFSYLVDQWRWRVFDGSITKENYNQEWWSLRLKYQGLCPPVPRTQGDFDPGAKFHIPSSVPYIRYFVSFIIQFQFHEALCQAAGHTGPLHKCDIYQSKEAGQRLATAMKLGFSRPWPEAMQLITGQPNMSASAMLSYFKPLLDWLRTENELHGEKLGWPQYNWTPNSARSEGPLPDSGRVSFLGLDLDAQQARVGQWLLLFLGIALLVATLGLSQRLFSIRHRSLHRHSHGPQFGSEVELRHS

`O=C(N[C@H]1CCS[C@H]2CCC[C@@H](C(=O)O)N2C1=O)[C@H](Cc1ccccc1)SS[C@@H](Cc1ccccc1)C(=O)N[C@H]1CCS[C@H]2CCC[C@@H](C(=O)O)N2C1=O`: the 50% inhibitory concentration (IC50) (in general, the concentration at which inhibition is half-maximal) in assay [1] is 2200 nM; in assay [2], 2800 nM; in assay [3], 2100 nM; in assay [4], 1800 nM.
For `O=C(N[C@H]1CCS[C@H]2CCC[C@@H](C(=O)O)N2C1=O)[C@@H](S)Cc1ccccc1` [OMAPATRILAT], the Ki (in general, the dissociation constant of the complex between target and ligand, obtained from inhibition or displacement) in assay [5] was 0.015 nM; in assay [6] it was 0.016 nM.

(Values after ChEMBL document CHEMBL4266030, “Molecular Basis for Multiple Omapatrilat Binding Sites within the ACE C-Domain: Implications for Drug Design” (J Med Chem, 2018).)
